What all share (assay type): cell-based, Staphylococcus aureus
One test has as its system SH1000 biofilms. Briefly: Biofilm formation in 96-well microtiter plates in supplemented TSB medium, crystal violet A595.
For another test, the system named is S. aureus biofilm cells. Briefly: Killing of biofilm cells in microplate wells, CFU/well enumeration. Conditions: 24-h biofilm; deoxyribonuclease I alone, 100 μg/ml for 10 min; FIG. 8.
Test [1] concerns S. aureus Strain SH1000 biofilms. Briefly: Detachment of pre-formed S. aureus biofilms in microtiter plate wells, crystal violet staining. The procedure: (§1) S. aureus Strain SH1000 (Horsburgh et al., 2002. J. Bacteriol. 184:5457-5467) was used in all of the following examples. The bacteria were passaged weekly on blood agar and stored at 4° C. Biofilms were cultured in Tryptic Soy broth (Becton-Dickinson, Sparks, Md.) containing 6 g of yeast extract and 8 g of glucose per liter (TSB medium). All cultures were incubated at 37° C.
A biofilm formation assay was carried out as follows. A loopful of cells from an agar plate was transferred to a polypropylene microcentrifuge tube containing 200 μl of TSB medium. The cells were crushed with a disposable pellet pestle, vortexed for 30 sec, diluted to 1 ml in fresh TSB medium, and then passed through a 5-μm pore-size syringe filter to remove large clumps of cells as previously described (Kaplan & Fine, 2002. Appl. Environ. Microbiol. 68:4943-4950). Filtered cells were diluted to 10^3-10^5 CFU/ml in TSB medium. Aliquots of cells (200 μl each) were transferred to the wells of a 96-well tissue-culture-treated polystyrene microtiter plate (Falcon no. 324662, Becton-Dickinson) and the plate was incubated for 24 h. The biofilms were rinsed once with water and then treated with 200 μl of deoxyribonuclease I (bovine deoxyribonuclease I, purchased from Sigma Chemical Company) at 100 μg/ml in 150 mM NaCl, 1 mM CaCl2. Control biofilms were treated with 200 μl of 150 mM NaCl, 1 mM CaCl2 alone. After 10 min at 37° C., biofilms were rinsed with water and then dried. Biofilms were stained for 1 min with 200 μl of Gram's crystal violet stain (catalog no. 23255960, Fisher Scientific, Fair Lawn, N.J.) and then rinsed with water and dried.
The concentration of deoxyribonuclease I was 100 μg/ml and the treatment time was 10 min. In this case, the amount of biofilm biomass remaining in the well was quantitated by measuring the A595 of the crystal violet stained biomass as described above, and the percent of biofilm cell detachment was calculated using the formula: 1−(A595[buffer+deoxyribonuclease I]/A595[buffer alone])×100.

For a further test, the system named is S. aureus SH1000 cells. Briefly: Autoaggregation and biofilm formation in PET tubes with supplemented TSB medium. The conditions noted are these: medium supplemented with 100 μg/ml, 16 h. Here is the method: as §1
These experiments were carried out as described above, except that biofilms were grown in 16-mm×100-mm PET tubes (2 ml culture vol) in a rotary shaker for 16 h.

“Also recorded” adds a separate entry of the source.

Protocol for S. aureus biofilm cells: Biofilms were grown for 24 h in 96-well microtiter plates as described above. Biofilms were rinsed once with water and then treated with 200 μl of TSB medium containing 100 μg/ml of deoxyribonuclease I. Control wells were treated with 200 μl of TSB medium alone. […] Control wells received 20 μl of water. […] This reaction was carried out in 100 μg/ml in 150 mM NaCl, 1 mM CaCl2 as described above. After 10 min, cells were mixed and then serial dilutions were plated on agar. For S. aureus biofilms treated with deoxyribonuclease I, cells were mixed and then a 50-μl aliquot of cells was diluted in 50 ml of phosphate buffered saline. The cells were passed through an analytical test filter funnel (no. 145-2020; Nalgene, Rochester, N.Y.), and the filter was rinsed with 250 ml of sterile water, aseptically removed from the filter unit, and placed on a blood agar plate. Colonies were enumerated after 24 h.

For the substance deoxyribonuclease I, the “inhibition of biofilm formation (A595 of crystal violet stained biomass), concentration dependence” value with SH1000 biofilms (increasing concentrations in medium, FIG. 7) is listed as “dependent on the deoxyribonuclease I concentration; also recorded: inhibited SH1000 biofilm formation in a dose-dependent manner”. For the same substance, the “biofilm colony morphology in microplate wells” value in the test with SH1000 biofilms (medium supplemented with 100 μg/ml, 24 h, FIG. 6) was “incapable of forming distinct biofilm colonies; also recorded: formed a dense film that uniformly covered the microwell surface, but which readily detached after gentle rinsing”. The “decrease in CFU/well values (killing of biofilm cells)” value in the test on S. aureus biofilm cells is “resistant to killing; also recorded: did not exhibit a significant decrease”. Moreover, the “detachment of biofilm (crystal violet staining material remaining in the well)” value in test [1] (24-h-old biofilm, 100 μg/ml, 10 min treatment, FIG. 1) is listed as “significant detachment of the biofilm; also recorded: nearly complete detachment”. For the same substance, the “concentration dependence of biofilm detachment (Absorbance at 595 nm)” value in test [1] (24-h-old biofilm, 10 min treatment, FIG. 2) is recorded as “dependent on the deoxyribonuclease I concentration”. For the same substance, the “detachment of biofilm (A595 of crystal violet)” value was “partial detachment” in test [1] (24-h-old biofilm, concentrations between 0.1 and 10 μg/ml, 10 min, FIG. 2); “near complete detachment” in test [1] (24-h-old biofilm, concentrations greater than 10 μg/ml, 10 min, FIG. 2); “little detachment” in test [1] (24-h-old biofilm, concentrations less than 0.1 μg/ml, 10 min, FIG. 2). Also, the “detachment of biofilms of different age (percent of biofilm cell detachment from A595)” value in test [1] (biofilms grown for 5, 8, 12 or 24 h, 100 μg/ml, 10 min, FIG. 3) is “capable of detaching; also recorded: significant detachment of all of the S. aureus biofilms, regardless of their age”. In the test with S. aureus SH1000 cells (FIG. 5), the “biofilm formation in tubes at the air-liquid interface (crystal violet staining)” value is reported as “much less biofilm formation; also recorded: inhibited biofilm formation at the air-liquid interface”. The “autoaggregation (clumping) of cells” value with S. aureus SH1000 cells (rotary shaker, FIG. 4) was “much less clumping; also recorded: formed smaller aggregates”.

The values are drawn from patent US8765123B1, “Compositions and methods for the treatment and prevention of infections caused by Staphylococcus aureus bacteria” (Rutgers, The State University of New Jersey, priority 2007, dated 2014).
